The target of data set [1] is Ribosomal protein S6 kinase alpha-3 (Homo sapiens) (UniProt P51812). In words: Selectivity interaction (KinomeScan (DiscoverX)) EUB0000303b RPS6KA3. Particulars: at 1 µM.
Data set [2] concerns the target T1, Serine/threonine-protein kinase Sgk1 (Homo sapiens) (UniProt O00141).
T1 sequence (whole entry): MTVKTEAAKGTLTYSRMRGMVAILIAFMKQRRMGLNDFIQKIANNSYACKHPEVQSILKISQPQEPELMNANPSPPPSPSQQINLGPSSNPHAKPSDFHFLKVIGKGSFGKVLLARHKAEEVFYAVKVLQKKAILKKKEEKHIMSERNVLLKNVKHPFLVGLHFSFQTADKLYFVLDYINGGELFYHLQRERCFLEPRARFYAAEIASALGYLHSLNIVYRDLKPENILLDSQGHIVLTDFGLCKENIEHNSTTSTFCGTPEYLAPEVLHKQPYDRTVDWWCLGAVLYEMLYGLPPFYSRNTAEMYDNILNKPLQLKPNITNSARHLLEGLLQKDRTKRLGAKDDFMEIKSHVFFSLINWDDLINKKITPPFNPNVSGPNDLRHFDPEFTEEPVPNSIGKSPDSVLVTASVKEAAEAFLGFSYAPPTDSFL
The data set is described as follows: Selectivity interaction (KinomeScan (DiscoverX)) EUB0000303b SGK1. Conditions: at 1 µM.

For data set [3], the target named is Sodium-dependent dopamine transporter (Homo sapiens, UniProt Q01959). The data set is described as follows: Selectivity interaction (GPCR panel (PDSP screen)) EUB0000303b SLC6A3.
Sequence of Sodium-dependent dopamine transporter (Q01959 whole entry): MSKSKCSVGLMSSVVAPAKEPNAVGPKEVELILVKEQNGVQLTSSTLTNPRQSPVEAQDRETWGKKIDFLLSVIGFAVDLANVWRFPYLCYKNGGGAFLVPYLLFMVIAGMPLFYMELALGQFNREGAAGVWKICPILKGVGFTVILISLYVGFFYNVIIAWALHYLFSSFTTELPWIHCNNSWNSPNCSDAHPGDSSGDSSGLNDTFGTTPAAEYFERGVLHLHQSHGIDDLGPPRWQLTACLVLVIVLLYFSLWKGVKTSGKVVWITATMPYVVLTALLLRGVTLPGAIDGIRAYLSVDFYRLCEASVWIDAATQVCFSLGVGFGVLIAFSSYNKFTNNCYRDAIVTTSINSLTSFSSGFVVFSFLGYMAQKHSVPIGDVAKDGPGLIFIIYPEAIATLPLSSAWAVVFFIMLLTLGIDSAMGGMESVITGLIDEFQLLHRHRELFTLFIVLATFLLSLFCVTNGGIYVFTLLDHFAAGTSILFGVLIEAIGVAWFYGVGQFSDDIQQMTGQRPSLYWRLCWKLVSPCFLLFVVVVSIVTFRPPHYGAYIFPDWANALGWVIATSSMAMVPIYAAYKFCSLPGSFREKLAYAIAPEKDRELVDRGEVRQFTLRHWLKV
The target of data set [4] is Serine/threonine-protein kinase WNK2 (Homo sapiens) (UniProt Q9Y3S1). The data set is described as follows: Selectivity interaction (KinomeScan (DiscoverX)) EUB0000303b WNK2. Particulars: at 1 µM.
Data set [5] has as its target T2, Gamma-aminobutyric acid receptor subunit alpha-1 (Homo sapiens, UniProt P14867).
T2 sequence (P14867 whole entry): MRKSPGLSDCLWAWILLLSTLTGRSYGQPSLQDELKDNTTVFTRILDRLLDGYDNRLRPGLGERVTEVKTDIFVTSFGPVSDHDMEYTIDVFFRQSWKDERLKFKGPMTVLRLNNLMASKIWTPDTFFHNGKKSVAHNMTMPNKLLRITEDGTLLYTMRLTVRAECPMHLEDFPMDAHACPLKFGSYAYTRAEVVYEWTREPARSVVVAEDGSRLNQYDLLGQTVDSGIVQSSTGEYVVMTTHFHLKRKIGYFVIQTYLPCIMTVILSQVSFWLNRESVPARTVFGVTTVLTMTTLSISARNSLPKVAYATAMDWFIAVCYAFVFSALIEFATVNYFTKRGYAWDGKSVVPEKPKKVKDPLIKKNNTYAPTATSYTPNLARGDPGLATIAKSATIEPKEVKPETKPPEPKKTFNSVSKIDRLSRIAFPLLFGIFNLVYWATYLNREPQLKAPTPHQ
In words: Selectivity interaction (GPCR panel (PDSP screen)) EUB0000303b GABRA1.

In data set [6] the target is Voltage-gated inwardly rectifying potassium channel KCNH2 (Homo sapiens, UniProt Q12809). In words: Selectivity interaction (Ricerca panel (GPCRs, ion channels, transporters, enzymes, and proteases)) EUB0000303b KCNH2. Conditions: at 10 µM.
Sequence of Voltage-gated inwardly rectifying potassium channel KCNH2 (Q12809 whole entry): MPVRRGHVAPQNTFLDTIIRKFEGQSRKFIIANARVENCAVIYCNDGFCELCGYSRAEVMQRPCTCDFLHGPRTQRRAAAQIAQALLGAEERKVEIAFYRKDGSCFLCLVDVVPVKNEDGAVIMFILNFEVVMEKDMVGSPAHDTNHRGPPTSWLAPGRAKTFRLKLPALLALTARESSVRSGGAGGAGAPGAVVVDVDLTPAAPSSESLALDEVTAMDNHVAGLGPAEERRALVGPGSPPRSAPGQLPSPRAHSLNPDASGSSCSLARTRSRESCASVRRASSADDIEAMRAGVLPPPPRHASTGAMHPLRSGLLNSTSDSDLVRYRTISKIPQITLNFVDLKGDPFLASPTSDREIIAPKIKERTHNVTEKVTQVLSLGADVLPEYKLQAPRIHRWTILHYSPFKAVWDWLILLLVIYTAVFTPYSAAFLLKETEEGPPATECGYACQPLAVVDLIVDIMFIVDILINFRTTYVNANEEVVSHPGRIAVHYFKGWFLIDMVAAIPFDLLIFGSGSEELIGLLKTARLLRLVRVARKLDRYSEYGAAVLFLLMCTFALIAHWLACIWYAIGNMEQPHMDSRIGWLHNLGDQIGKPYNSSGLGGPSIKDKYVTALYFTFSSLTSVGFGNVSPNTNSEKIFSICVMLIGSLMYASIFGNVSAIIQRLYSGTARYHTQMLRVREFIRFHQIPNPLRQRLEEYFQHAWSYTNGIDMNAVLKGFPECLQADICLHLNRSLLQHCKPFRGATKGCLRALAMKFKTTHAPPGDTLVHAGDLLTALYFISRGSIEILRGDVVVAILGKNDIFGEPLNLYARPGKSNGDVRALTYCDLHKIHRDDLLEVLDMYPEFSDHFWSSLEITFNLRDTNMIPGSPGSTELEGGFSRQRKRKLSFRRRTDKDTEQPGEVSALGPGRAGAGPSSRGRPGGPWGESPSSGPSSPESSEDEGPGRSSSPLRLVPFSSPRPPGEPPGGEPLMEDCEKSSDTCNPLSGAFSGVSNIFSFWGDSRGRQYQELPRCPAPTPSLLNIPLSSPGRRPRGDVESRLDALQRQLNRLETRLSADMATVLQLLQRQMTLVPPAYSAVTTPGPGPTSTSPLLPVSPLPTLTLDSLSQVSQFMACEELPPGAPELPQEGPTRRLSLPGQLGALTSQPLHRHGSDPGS
For data set [7], the target named is T3, Ephrin type-B receptor 6 (Homo sapiens) (UniProt O15197).
T3 sequence (whole entry): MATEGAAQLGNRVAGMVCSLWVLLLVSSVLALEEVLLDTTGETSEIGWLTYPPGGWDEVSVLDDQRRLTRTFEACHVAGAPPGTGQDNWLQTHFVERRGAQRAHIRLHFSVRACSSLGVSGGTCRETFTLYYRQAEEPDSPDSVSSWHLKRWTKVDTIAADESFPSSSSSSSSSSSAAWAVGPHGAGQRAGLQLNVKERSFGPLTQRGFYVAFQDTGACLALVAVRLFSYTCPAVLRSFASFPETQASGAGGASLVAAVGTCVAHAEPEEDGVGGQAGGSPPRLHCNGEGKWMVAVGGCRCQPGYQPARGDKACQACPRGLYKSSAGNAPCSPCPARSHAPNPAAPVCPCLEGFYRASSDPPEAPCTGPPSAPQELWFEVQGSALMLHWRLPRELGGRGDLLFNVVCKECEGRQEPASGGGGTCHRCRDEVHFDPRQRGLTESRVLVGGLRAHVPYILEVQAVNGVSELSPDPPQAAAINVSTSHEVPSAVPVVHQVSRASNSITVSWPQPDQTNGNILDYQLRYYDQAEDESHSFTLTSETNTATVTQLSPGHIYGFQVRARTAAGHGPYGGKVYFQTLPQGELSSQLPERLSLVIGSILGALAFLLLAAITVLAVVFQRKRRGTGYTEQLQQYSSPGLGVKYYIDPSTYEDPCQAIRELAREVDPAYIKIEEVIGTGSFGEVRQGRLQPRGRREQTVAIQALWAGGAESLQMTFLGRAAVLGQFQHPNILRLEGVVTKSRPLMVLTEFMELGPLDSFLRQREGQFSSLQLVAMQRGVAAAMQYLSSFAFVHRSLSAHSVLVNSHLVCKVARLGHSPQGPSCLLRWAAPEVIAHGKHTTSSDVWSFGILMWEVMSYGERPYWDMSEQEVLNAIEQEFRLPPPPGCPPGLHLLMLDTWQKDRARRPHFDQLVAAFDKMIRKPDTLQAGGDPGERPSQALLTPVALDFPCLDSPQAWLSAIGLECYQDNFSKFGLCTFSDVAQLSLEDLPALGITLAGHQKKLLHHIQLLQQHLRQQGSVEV
The data set is described as follows: Selectivity interaction (KinomeScan (DiscoverX)) EUB0000303b EPHB6. Particulars: at 1 µM.

For data set [8], the target named is Beta-adrenergic receptor kinase 1 (Homo sapiens) (UniProt P25098). The data set is described as follows: Selectivity interaction (KinomeScan (DiscoverX)) EUB0000303b ADRBK1. Particulars: at 1 µM.
Sequence of Beta-adrenergic receptor kinase 1 (Homo sapiens) (P25098 whole entry): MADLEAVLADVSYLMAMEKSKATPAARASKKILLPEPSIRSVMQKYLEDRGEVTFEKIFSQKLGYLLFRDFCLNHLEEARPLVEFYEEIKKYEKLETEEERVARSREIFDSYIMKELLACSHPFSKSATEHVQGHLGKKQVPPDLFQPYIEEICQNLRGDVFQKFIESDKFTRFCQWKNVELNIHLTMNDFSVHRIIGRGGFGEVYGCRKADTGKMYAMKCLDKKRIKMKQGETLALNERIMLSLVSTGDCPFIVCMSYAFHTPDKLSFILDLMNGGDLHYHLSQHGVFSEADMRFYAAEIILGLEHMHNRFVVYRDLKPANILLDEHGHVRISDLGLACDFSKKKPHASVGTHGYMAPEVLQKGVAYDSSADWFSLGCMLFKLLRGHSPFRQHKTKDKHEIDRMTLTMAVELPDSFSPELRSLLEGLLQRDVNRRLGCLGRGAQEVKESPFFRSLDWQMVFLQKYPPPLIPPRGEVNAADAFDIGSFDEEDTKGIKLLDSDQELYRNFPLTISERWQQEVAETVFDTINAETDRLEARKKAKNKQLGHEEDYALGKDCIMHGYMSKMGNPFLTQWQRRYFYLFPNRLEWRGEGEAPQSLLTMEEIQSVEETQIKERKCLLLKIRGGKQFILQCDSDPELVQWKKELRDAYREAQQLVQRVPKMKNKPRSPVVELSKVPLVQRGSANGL
Data set [9] has as its target T4, Serine/threonine-protein kinase LATS2 (Homo sapiens) (UniProt Q9NRM7).
T4 sequence (whole entry): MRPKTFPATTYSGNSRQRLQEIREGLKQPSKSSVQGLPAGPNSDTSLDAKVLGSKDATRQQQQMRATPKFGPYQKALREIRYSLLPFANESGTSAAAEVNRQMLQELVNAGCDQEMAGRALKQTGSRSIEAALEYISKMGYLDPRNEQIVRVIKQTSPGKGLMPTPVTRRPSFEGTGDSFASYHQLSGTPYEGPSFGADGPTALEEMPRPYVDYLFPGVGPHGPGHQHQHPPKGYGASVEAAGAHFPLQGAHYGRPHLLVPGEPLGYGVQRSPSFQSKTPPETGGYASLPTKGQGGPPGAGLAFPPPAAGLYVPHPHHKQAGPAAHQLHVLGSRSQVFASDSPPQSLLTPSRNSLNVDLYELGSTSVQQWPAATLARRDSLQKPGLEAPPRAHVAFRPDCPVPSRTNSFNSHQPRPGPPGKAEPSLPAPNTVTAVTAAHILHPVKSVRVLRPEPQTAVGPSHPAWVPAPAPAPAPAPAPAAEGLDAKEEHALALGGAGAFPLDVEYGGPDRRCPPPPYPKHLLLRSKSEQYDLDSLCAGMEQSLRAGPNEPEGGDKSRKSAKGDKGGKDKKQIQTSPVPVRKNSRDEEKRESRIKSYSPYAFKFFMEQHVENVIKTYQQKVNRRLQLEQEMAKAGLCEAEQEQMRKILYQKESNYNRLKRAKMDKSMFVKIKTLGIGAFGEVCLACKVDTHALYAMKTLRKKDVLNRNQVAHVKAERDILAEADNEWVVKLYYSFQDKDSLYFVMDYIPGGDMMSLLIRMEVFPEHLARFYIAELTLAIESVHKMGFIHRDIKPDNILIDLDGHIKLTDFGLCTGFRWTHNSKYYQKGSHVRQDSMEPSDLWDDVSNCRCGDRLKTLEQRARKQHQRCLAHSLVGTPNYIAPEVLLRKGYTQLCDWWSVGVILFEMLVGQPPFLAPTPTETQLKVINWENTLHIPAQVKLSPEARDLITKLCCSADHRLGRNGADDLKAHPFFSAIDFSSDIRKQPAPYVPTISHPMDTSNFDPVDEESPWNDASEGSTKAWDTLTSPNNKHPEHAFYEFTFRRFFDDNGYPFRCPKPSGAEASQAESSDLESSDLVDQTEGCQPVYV
In words: Selectivity interaction (KinomeScan (DiscoverX)) EUB0000303b LATS2. Particulars: at 1 µM.

Data set [10] concerns the target Glutamate receptor ionotropic, NMDA 1 (Homo sapiens, UniProt Q05586). In words: Selectivity interaction (PRESTO-Tango GPCR-ome screening) EUB0000539a GRIN1.
Data set [11] concerns the target T5, Sodium/nucleoside cotransporter 2 (Homo sapiens, UniProt O43868).
T5 sequence (O43868 whole entry): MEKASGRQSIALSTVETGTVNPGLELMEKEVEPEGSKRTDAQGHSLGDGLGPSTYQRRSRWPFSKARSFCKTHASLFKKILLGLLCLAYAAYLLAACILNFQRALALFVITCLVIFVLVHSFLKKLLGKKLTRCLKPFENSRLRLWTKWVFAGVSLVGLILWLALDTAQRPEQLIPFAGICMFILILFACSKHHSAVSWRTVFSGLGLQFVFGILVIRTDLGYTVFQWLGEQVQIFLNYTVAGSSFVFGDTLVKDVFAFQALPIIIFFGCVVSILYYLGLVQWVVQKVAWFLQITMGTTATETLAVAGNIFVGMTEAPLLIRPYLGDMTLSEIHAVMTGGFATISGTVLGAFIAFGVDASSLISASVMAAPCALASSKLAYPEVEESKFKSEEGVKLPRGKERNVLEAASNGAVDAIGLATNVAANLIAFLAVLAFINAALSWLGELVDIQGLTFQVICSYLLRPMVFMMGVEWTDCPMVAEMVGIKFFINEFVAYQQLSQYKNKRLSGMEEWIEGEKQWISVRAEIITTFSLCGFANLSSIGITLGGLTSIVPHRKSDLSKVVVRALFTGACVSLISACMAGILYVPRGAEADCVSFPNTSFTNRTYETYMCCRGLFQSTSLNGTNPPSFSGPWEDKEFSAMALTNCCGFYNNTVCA
In words: Selectivity interaction (Enzyme panel (Eurofins-Panlabs radioligand binding assays)) EUB0000751a SLC28A2.

The target of data set [12] is T5, Sodium/nucleoside cotransporter 2. The data set is described as follows: Selectivity interaction (Enzyme panel (Eurofins-Panlabs enzyme assay)) EUB0000751a SLC28A2.
Data set [13] deals with cGMP-inhibited 3',5'-cyclic phosphodiesterase 3A (Homo sapiens, UniProt Q14432). In words: Selectivity interaction (PDE panel (enzymatic activity assay)) EUB0000751a PDE3A.
Sequence of cGMP-inhibited 3',5'-cyclic phosphodiesterase 3A (Q14432 whole entry): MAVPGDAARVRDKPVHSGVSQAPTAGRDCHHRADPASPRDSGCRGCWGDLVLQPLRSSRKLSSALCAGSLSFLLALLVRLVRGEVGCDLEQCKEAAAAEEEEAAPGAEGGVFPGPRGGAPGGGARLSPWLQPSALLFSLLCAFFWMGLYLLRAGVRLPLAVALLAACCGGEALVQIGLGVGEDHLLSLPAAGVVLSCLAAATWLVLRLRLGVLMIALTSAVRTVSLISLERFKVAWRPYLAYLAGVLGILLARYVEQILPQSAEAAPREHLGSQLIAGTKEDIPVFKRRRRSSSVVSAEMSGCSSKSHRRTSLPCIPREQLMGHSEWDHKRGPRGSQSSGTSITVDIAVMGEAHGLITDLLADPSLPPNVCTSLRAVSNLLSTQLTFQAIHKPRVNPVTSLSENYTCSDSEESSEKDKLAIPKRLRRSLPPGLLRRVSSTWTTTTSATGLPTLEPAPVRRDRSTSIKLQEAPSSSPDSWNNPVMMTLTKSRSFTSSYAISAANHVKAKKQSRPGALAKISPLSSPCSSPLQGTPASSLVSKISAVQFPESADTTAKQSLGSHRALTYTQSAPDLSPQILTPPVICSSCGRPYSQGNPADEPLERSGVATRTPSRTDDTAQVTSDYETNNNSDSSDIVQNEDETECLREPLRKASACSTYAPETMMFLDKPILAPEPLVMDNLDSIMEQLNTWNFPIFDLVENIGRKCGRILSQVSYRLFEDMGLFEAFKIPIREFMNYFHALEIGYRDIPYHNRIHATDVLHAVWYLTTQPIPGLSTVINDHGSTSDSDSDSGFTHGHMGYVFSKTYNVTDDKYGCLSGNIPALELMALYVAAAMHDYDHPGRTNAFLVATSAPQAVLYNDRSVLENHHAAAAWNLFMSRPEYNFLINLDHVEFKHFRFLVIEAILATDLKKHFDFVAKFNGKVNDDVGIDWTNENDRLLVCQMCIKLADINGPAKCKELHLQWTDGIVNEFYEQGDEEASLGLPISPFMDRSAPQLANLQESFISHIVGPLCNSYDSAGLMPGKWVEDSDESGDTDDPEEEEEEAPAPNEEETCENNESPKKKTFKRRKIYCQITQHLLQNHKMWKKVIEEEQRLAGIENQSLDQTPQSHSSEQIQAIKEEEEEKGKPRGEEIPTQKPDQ
Data set [14] concerns the target High affinity 3',5'-cyclic-AMP phosphodiesterase 7A (Homo sapiens, UniProt Q13946). In words: Selectivity interaction (PDE panel (enzymatic activity assay)) EUB0000751a PDE7A.
The target in data set [15] is RAC-gamma serine/threonine-protein kinase (Homo sapiens) (UniProt Q9Y243). The data set is described as follows: Selectivity interaction (KinomeScan (DiscoverX)) EUB0000751a AKT3. Particulars: at 100 nM.
Sequence of RAC-gamma serine/threonine-protein kinase (Homo sapiens) (Q9Y243 whole entry): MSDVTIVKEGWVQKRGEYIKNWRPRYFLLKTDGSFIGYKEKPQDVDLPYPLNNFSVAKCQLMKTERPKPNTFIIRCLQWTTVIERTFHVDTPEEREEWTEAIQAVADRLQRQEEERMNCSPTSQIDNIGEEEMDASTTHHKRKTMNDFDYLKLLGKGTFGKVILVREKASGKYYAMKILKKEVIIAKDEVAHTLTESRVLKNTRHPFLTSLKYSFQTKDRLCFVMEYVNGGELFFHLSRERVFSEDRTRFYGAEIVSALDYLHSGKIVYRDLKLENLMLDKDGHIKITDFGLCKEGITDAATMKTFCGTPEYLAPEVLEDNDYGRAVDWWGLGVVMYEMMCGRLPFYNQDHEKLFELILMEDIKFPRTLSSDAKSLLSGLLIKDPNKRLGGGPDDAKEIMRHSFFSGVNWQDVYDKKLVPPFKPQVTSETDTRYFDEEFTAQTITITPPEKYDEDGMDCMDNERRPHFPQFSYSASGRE
In data set [16] the target is 5-hydroxytryptamine receptor 2B (Homo sapiens, UniProt P41595). The data set is described as follows: Selectivity interaction (Lead profiling screen (Eurofins-Panlabs)) EUB0000720a HTR2B. Particulars: at 10 µM.
Sequence of 5-hydroxytryptamine receptor 2B (P41595 whole entry): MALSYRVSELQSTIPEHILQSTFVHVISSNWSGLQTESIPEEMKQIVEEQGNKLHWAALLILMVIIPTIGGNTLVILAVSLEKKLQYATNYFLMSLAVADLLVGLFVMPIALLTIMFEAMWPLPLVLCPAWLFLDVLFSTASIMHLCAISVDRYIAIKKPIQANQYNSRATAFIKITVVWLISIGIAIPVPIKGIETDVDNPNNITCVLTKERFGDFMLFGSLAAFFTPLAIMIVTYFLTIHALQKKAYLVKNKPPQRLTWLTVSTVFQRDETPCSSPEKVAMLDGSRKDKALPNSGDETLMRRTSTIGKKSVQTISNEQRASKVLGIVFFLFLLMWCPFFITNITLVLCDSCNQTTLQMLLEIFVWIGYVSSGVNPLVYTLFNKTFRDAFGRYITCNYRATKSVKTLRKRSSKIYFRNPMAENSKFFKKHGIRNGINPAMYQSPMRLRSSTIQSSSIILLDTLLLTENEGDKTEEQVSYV
Data set [17] addresses T2, Gamma-aminobutyric acid receptor subunit alpha-1. The data set is described as follows: Selectivity interaction (GPCR panel (PDSP screen)) EUB0000720a GABRA1.
For data set [18] the target is unchanged. In words: Selectivity interaction (GPCR panel (PDSP screen)) EUB0000719a GABRA1.

The structures appear in SMILES notation.

The record followed here is ChEMBL document CHEMBL5212743, “Selectivity Literature for EUbOPEN Chemogenomics Library wave 3” (2023).

Sequence of High affinity 3',5'-cyclic-AMP phosphodiesterase 7A (Q13946 whole entry): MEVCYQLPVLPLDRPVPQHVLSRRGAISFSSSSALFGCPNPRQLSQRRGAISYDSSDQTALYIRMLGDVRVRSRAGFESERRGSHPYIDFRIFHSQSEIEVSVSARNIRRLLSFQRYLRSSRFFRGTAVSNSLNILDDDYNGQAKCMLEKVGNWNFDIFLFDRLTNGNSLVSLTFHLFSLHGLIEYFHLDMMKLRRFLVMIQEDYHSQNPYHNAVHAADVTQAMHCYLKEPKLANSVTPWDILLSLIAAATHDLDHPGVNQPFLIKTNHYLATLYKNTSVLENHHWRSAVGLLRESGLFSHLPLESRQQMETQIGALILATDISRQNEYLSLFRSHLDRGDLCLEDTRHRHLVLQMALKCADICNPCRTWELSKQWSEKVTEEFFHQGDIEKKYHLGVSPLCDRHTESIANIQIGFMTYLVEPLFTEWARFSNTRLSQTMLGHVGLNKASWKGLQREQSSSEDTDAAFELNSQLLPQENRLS

For `Cc1nc(N2CC[C@H](O)C2)ncc1-c1cc(C(F)(F)F)cc2[nH]ncc12`, the % of control in data set [1] came to 48%; in [2], 49%; in [4] it was 41%; in data set [7], 36%; in data set [8], 42%; in data set [9], 26%. Moreover, the Ki was 1.68 µM in data set [3] and 4.54 µM in data set [5]. The “% of inhibition” value in data set [6] worked out at 1%.
`Cc1ccc2nc(CNCCCOc3ccccc3)cc(O)c2c1` [UCSF924]: the affinity in [10] corresponds to a Ki of 1 µM.
Turning to `COCCOc1nc(-c2ccc(Cl)nc2)nc2c1CN(C(=O)c1ncn3ccccc13)CC2` [THPP-1], the IC50 in data set [11] and in data set [12] was 1.61 µM in each case. In addition, the values for the Ki in data set [13] and in data set [14] were more than 3300 µM and more than 11.2 µM, respectively. This compound gave a % of control in data set [15] of 47%.
As to `CN1C(=O)[C@@H](N2CCc3c(nn(Cc4ccccc4)c3Br)C2=O)COc2ccccc21` [TP-030-2], the % of control in data set [16] amounted to 63%. The affinity in data set [17] corresponds to a Ki of 0.347 µM.
With `CN1C(=O)[C@@H](N2CCc3cn(Cc4ccccc4)nc3C2=O)COc2ccccc21` [TP-030-1], affinity in [18] was put at a Ki of 0.375 µM.
